Experimental findings from ChEMBL document CHEMBL4680150, “Design, synthesis and biological evaluation of vincamine derivatives as potential pancreatic β-cells protective agents for the treatment of type 2 diabetes mellitus” (Eur J Med Chem, 2020) are described below.

Assay [1] has as its system INS1(832/13). Put plainly: Cytoprotective activity in rat INS-1 832/13 cells assessed as inhibition of STZ-induced apoptosis at 20 uM incubated for 24 hrs by MTT assay relative to control. It is filed as functional.
The test system of assay [2] is INS1(832/13). The assay can be described thus: Cytoprotective activity in rat INS-1 832/13 cells assessed as inhibition of STZ-induced apoptosis incubated for 24 hrs by MTT assay. It is filed as functional, cell-based. As to conditions: INS-1 832/13, 24 h.

The source made the active and inactive calls. The rule behind the calls is not given here.

As to `CCNC(=O)C1=C[C@]2(CC)CCCN3CCc4c(n1c1ccccc41)[C@@H]32`, the outcome in assay [1] was Active. In addition, the EC50 in assay [2] worked out at 0.2 µM.
Take `CC[C@@]12C=C(COC(=O)Nc3ccccc3)n3c4c(c5ccccc53)CCN(CCC1)[C@H]42`: the result in assay [1] was inactive.
On to `CC[C@@]12C=C(C(=O)NCCO)n3c4c(c5ccccc53)CCN(CCC1)[C@H]42`, for which the outcome in assay [1] was Active. The 50% effective concentration (EC50) in assay [2] is 0.96 µM.
Regarding `CCCCCNC(=O)C1=C[C@]2(CC)CCCN3CCc4c(n1c1ccccc41)[C@@H]32`, in assay [1], the result was inactive.
In the case of `CC[C@@]12C=C(CNC(=O)C(C)C)n3c4c(c5ccccc53)CCN(CCC1)[C@H]42`, the result in assay [1] was Active. The EC50 in assay [2] is 7.2 µM.
`CC[C@@]12C=C(C(=O)NC(C)C)n3c4c(c5ccccc53)CCN(CCC1)[C@H]42`: in assay [1], the result was Active. Further, the EC50 in assay [2] turned out to be 10.8 µM.
With `CCN(CC)C(=O)C1=C[C@]2(CC)CCCN3CCc4c(n1c1ccccc41)[C@@H]32`, the outcome in assay [1] was Active. In addition, the EC50 in assay [2] was determined as 11.5 µM.
For `CCCOC(=O)C1=C[C@]2(CC)CCCN3CCc4c(n1c1ccccc41)[C@@H]32`, in that order: “Active” and 5.44 µM.
For `CCCC(=O)NCC1=C[C@]2(CC)CCCN3CCc4c(n1c1ccccc41)[C@@H]32`, in that order: “Active” and 8.7 µM.
For `CC[C@@]12C=C(CNC(=O)C3CC3)n3c4c(c5ccccc53)CCN(CCC1)[C@H]42`, in that order: “Active” and 4.4 µM.
On to `CC[C@@]12C=C(COC(=O)C(C)C)n3c4c(c5ccccc53)CCN(CCC1)[C@H]42`, for which the result in assay [1] was Active. In assay [2], the EC50 is 1.74 µM.
On to `CCNC(=O)NCC1=C[C@]2(CC)CCCN3CCc4c(n1c1ccccc41)[C@@H]32`, for which, in assay [1], the result was inactive.
Consider `CC[C@@]12C=C(COC(C)=O)n3c4c(c5ccccc53)CCN(CCC1)[C@H]42`, for which the outcome in assay [1] was Active. In addition, the EC50 in assay [2] was determined as 0.36 µM.
For the compound `CC[C@@]12C=C(C(N)=O)n3c4c(c5ccccc53)CCN(CCC1)[C@H]42`, in assay [1], the result was inactive. Also, in assay [2], the half-maximal effective concentration (EC50) worked out at 10.2 µM.
Turning to `CC[C@@]12C=C(C(=O)OC)n3c4c(c5ccccc53)CCN(CCC1)[C@H]42` [APOVINCAMINE], the outcome in assay [1] was Active. Besides, in assay [2], the concentration giving a half-maximal response (EC50) was found to be 5.03 µM.
Consider `CC[C@@]12C=C(C(=O)N3CCOCC3)n3c4c(c5ccccc53)CCN(CCC1)[C@H]42`, for which, in assay [1], the outcome was Active. Besides, the EC50 in assay [2] came out at 10.9 µM.
As for `CCCNCC1=C[C@]2(CC)CCCN3CCc4c(n1c1ccccc41)[C@@H]32`, in assay [1], the result was inactive.
For `CCCCN(CCCC)C(=O)C1=C[C@]2(CC)CCCN3CCc4c(n1c1ccccc41)[C@@H]32`, in assay [1], the outcome was inactive.
As to `CC[C@@]12C=C(COC(N)=O)n3c4c(c5ccccc53)CCN(CCC1)[C@H]42`, in assay [1], the outcome was Active. The concentration for a half-maximal effect (EC50) in assay [2] was found to be 8.75 µM.
For `CC[C@@]12C=C(C(=O)Nc3ccc(OC)cc3)n3c4c(c5ccccc53)CCN(CCC1)[C@H]42`, the outcome in assay [1] was inactive.
With `CCC(=O)NCC1=C[C@]2(CC)CCCN3CCc4c(n1c1ccccc41)[C@@H]32`, in assay [1], the result was Active. Also, in assay [2], the EC50 worked out at 3.02 µM.
For `CC[C@@]12C=C(COC(=O)NC)n3c4c(c5ccccc53)CCN(CCC1)[C@H]42`, in that order: “Active” and 1.65 µM.
With `CC[C@@]12C=C(COC(=O)NCCCO)n3c4c(c5ccccc53)CCN(CCC1)[C@H]42`, the result in assay [1] was Active. In addition, in assay [2], the half-maximal effective concentration (EC50) was determined as 9.05 µM.
For `CCNC(=O)OCC1=C[C@]2(CC)CCCN3CCc4c(n1c1ccccc41)[C@@H]32`, in that order: “Active” and 1.69 µM.
Take `CC[C@@]12C=C(C(=O)NC3CCCC3)n3c4c(c5ccccc53)CCN(CCC1)[C@H]42`: the result in assay [1] was Active. Besides, the EC50 in assay [2] is 12.8 µM.
For `CCC(=O)OCC1=C[C@]2(CC)CCCN3CCc4c(n1c1ccccc41)[C@@H]32`, in that order: “Active” and 6.84 µM.
On to `CCCC(=O)OCC1=C[C@]2(CC)CCCN3CCc4c(n1c1ccccc41)[C@@H]32`, for which the outcome in assay [1] was Active. Also, the concentration for a half-maximal effect (EC50) in assay [2] stood at 3.77 µM.
For `CCCNC(=O)C1=C[C@]2(CC)CCCN3CCc4c(n1c1ccccc41)[C@@H]32`, in assay [1], the outcome was Active. For the same compound, the EC50 in assay [2] came to 0.37 µM.
For `CCCN(CCC)C(=O)C1=C[C@]2(CC)CCCN3CCc4c(n1c1ccccc41)[C@@H]32`, in that order: “Active” and 7.1 µM.
For `CC[C@@]12C=C(COC(=O)NCCO)n3c4c(c5ccccc53)CCN(CCC1)[C@H]42`, in that order: “Active” and 5.32 µM.
Consider `CC[C@@]12C=C(CNC)n3c4c(c5ccccc53)CCN(CCC1)[C@H]42`, for which the result in assay [1] was Active. In assay [2], the EC50 worked out at 1.6 µM.
Take `CC[C@@]12C=C(COC(=O)c3ccccc3)n3c4c(c5ccccc53)CCN(CCC1)[C@H]42`: in assay [1], the outcome was inactive.
The same measure, in the same setting: with `CC[C@@]12C=C(CNC(=O)c3ccccc3)n3c4c(c5ccccc53)CCN(CCC1)[C@H]42` the entry was “inactive”.
Turning to `CCCCNC(=O)C1=C[C@]2(CC)CCCN3CCc4c(n1c1ccccc41)[C@@H]32`, in assay [1], the outcome was Active. For the same compound, in assay [2], the EC50 is 9.4 µM.
As for `CC[C@@]12C=C(COC(=O)NC(C)C)n3c4c(c5ccccc53)CCN(CCC1)[C@H]42`, the outcome in assay [1] was Active. In addition, in assay [2], the EC50 was determined as 10.8 µM.
Regarding `CC[C@@]12C=C(C(=O)N3CCCCC3)n3c4c(c5ccccc53)CCN(CCC1)[C@H]42`, in assay [1], the result was Active. Further, the 50% effective concentration (EC50) in assay [2] was found to be 4.89 µM.
Regarding `CC[C@@]12C=C(C(=O)N3CCCC3)n3c4c(c5ccccc53)CCN(CCC1)[C@H]42`, the result in assay [1] was Active. Also, the 50% effective concentration (EC50) in assay [2] came out at 13.2 µM.
For `CC[C@@]12C=C(C(=O)NCCCO)n3c4c(c5ccccc53)CCN(CCC1)[C@H]42`, in that order: “Active” and 10.2 µM.
For `CC[C@@]12C=C(CN)n3c4c(c5ccccc53)CCN(CCC1)[C@H]42`, in that order: “Active” and 7.62 µM.
For `CC[C@@]12C=C(C(=O)OC(C)C)n3c4c(c5ccccc53)CCN(CCC1)[C@H]42`, in that order: “Active” and 4.55 µM.
Turning to `CC[C@@]12C=C(C(=O)N(C)C)n3c4c(c5ccccc53)CCN(CCC1)[C@H]42`, the outcome in assay [1] was inactive.
On to `CC[C@@]12C=C(C(=O)NC)n3c4c(c5ccccc53)CCN(CCC1)[C@H]42`, for which the outcome in assay [1] was Active. Besides, the EC50 in assay [2] came out at 0.66 µM.
Take `CC[C@@]12C=C(C(=O)Nc3ccccc3)n3c4c(c5ccccc53)CCN(CCC1)[C@H]42`: the result in assay [1] was inactive.
Same read-out and setting: with `CC[C@@]12C=C(CNC(=O)NC)n3c4c(c5ccccc53)CCN(CCC1)[C@H]42` the entry was “inactive”.
Consider `CCCNC(=O)OCC1=C[C@]2(CC)CCCN3CCc4c(n1c1ccccc41)[C@@H]32`, for which the outcome in assay [1] was Active. For the same compound, in assay [2], the concentration giving a half-maximal response (EC50) amounted to 5.85 µM.
Consider `CCCCNC(=O)OCC1=C[C@]2(CC)CCCN3CCc4c(n1c1ccccc41)[C@@H]32`, for which, in assay [1], the outcome was inactive.
Still for that read-out and setting: next, `CC[C@@]12C=C(CNC(N)=O)n3c4c(c5ccccc53)CCN(CCC1)[C@H]42`: “inactive”; `CC[C@@]12C=C(CNCc3ccccc3)n3c4c(c5ccccc53)CCN(CCC1)[C@H]42`: “inactive”; `CC[C@@]12C=C(CNC(=O)Nc3ccccc3)n3c4c(c5ccccc53)CCN(CCC1)[C@H]42`: “inactive”.
